Legend:
[1] = target: T1, Cutinase 1 (Fusarium vanettenii) (UniProt P00590); test: Inhibition of Fusarium solani pisi cutinase preincubated with enzyme measured after 30 mins by pH-stat technique
T1 sequence (whole entry): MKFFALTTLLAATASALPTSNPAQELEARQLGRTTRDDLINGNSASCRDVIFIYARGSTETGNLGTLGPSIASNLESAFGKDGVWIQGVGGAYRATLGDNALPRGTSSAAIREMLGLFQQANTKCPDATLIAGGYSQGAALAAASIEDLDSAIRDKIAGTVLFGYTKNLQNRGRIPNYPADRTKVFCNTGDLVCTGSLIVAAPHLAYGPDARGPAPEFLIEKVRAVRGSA

[2] = system: Mycobacterium tuberculosis; test: Inhibition of Mycobacterium tuberculosis triacylglycerol lipase LipY at 20 molar excess compound concentration preincubated with enzyme measured after 30 mins by pH-stat technique relative to control
[3] = system: Mycobacterium tuberculosis; test: Inhibition of Mycobacterium tuberculosis triacylglycerol lipase LipY preincubated with enzyme measured after 30 mins by pH-stat technique
[4] = system: Mycobacterium tuberculosis; test: Inhibition of Mycobacterium tuberculosis monoacylglycerol lipase Rv0183 preincubated with enzyme measured after 30 mins by pH-stat technique
[5] = target: T1, Cutinase 1 (Fusarium vanettenii); test: Inhibition of Fusarium solani pisi cutinase at 20 molar excess compound concentration preincubated with enzyme measured after 30 mins by pH-stat technique relative to control
[6] = system: Mycobacterium tuberculosis; test: Inhibition of Mycobacterium tuberculosis monoacylglycerol lipase Rv0183 at 20 molar excess compound concentration preincubated with enzyme measured after 30 mins by pH-stat technique relative to control

## CCCCCCCCCC[C@@H]1CC[P@@](=O)(OC)OC(C)=C1C(=O)OC
[1]
  XI50: 3.38 molar excess
[2]
  inhibition: 82.8%
[3]
  XI50: 1.64 molar excess
[4]
  XI50: 7.61 molar excess
[5]
  inhibition: 91.8%
[6]
  inhibition: 87.7%

## CCCCCCCCCC[C@H]1CC[P@@](=O)(OC)OC(C)=C1C(=O)OC
[1]
  XI50: 97.3 molar excess
[2]
  inhibition: 39.8%
[3]
  XI50: 25.9 molar excess
[4]
  XI50: 11.3 molar excess
[5]
  inhibition: 22.5%
[6]
  inhibition: 78.7%

## CCCCCCCCCC[C@@H]1CC[P@](=O)(OC)OC(C)=C1C(=O)OC
[1]
  XI50: 4.07 molar excess
[2]
  inhibition: 49.6%
[3]
  XI50: 15.4 molar excess
[4]
  XI50: 1.24 molar excess
[5]
  inhibition: 86.5%
[6]
  inhibition: 93.1%

## CCCCCCCCCC[C@H]1CC[P@](=O)(OC)OC(C)=C1C(=O)OC
[1]
  XI50: 2.52 molar excess
[2]
  inhibition: 42.1%
[3]
  XI50: 20 molar excess
[4]
  XI50: 1.16 molar excess
[5]
  inhibition: 93.2%
[6]
  inhibition: 96.6%
